Entries after “also recorded” stand apart in the source; their conditions may differ.
Assays:
TAZ = experiment: Western blotting of TAZ in cardiomyocytes; format: cell-based, Human; conditions: hyperglycemia conditioned cardiomyocytes, diabetic drug plus Coenzyme Q10 (T+R)
Experimental: (§1) Human cardiomyocytes were subject to conditions simulating an diabetic environment experienced by the disease-relevant cells in vivo. Specifically, the cells were exposed to hyperglycemic conditions and hyperlipidemia conditions. The hyperglycemic condition was induced by culturing cells in media containing 22 mM glucose. The hyperlipidemia condition was induced by culturing the cells in media containing 1 mM L-carnitine, 0.7 mM Oleic acid and 0.7 mM Linoleic acid.
The cell model comprising the above-mentioned cells, wherein the cells were exposed to each condition described above, was additionally “interrogated” by exposing the cells to an “environmental perturbation” by treating with a diabetic drug (T) which is known to cause cardiotoxicity, a rescue molecule (R) or both the diabetic drug and the rescue molecule (T+R). Specifically, the cells were treated with diabetic drug; or treated with rescue molecule Coenzyme Q10 at 0, 50 µM, or 100 µM; or treated with both of the diabetic drug and the rescue molecule Coenzyme Q10.
Protein expression levels of GPAT1 and TAZ for each condition and each treatment were tested with western blotting.

HUVEC cells [1] = experiment: HUVEC apoptosis (annexin V/propidium iodide positive cells, flow cytometry); format: cell-based, Human; conditions: for propidium iodide positive apoptotic cells: 24 hours
Experimental: (§2) Methods: Human umbilical vein endothelial cell (HUVEC) fate decisions that modulate the angiogenic phenotype were examined in the presence of 100 or 1500 μM CoQ10 or excipient and compared to untreated control cells. Endothelial cell fate assays for apoptosis, proliferation, migration and 3-D tube formation within MATRIGEL® were performed.
(§3) To assess the potential effects of CoQ10 on endothelial migration, HUVEC migration was examined 5 hours post-cell clearance, in an endothelial scratch assay. […] In order to determine if the CoQ10 anti-tumor activity is due to effects on endothelial sprouting angiogenesis, we examined endothelial tube formation in 3-D MATRIGEL® cultures over time. Addition of excipient in both the gel and overlying media impaired tube formation compared to control.
CoQ10 has divergent effects on endothelial cell survival: Confluent and sub-confluent cultures of HUVEC cells were treated for 24 hours with 100 or 1500 μM CoQ10 and assayed for propidium iodide positive apoptotic cells. The results are shown in FIGS. 53A and 53B, respectively.

[2] = test system: hyperglycemia conditioned cardiomyocytes; experiment: Mitochondrial oxygen consumption rate in hyperglycemia conditioned cardiomyocytes (Seahorse); format: cell-based, Human; conditions: diabetic drug plus Coenzyme Q10 (T1+R or T2+R)
Experimental: as §1
iProfiling of changes in total cellular protein expression by quantitative proteomics was performed for cell and media samples collected for each condition and with each “environmental perturbation”, i.e, diabetic drug treatment, Coenzyme Q10 treatment or both, using the techniques described above in the detailed description. Transcriptional profiling experiments were carried out using the Biorad cfx-384 amplification system. Following data collection (Ct), the final fold change over control was determined using the δCt method as outlined in manufacturer's protocol. Lipidomics experiments were carried out using mass spectrometry. Functional assays such as Oxygen consumption rate OCR were measured by employing the Seahorse analyzer essentially as recommended by the manufacturer. OCR was recorded by the electrodes in a […] chamber created with the cartridge pushing against the seahorse culture plate. […]

caspase 3 = experiment: Caspase 3 activation in endothelial cells; format: cell-based
Text: Angiogenesis is a key enabling feature of tumor progression that provides oxygen and nutrients that are required for tumor cell growth. We have investigated the anti-angiogenic properties of CoQ10, an anti-tumor drug that is currently under investigation in human studies of cancer progression.

HUVEC cells [3] = experiment: Endothelial tube formation in 3-D MATRIGEL; format: cell-based, Human; conditions: for endothelial tube formation: 3-D matrigel
Experimental: as §2, §3
CoQ10 impairs endothelial tube formation: Endothelial cells growing in 3-D matrigel form tubes over time. Differential effects of 100 μM and 1500 μM CoQ10 on tube formation were observed. […] Images shown in FIG. 56 were taken at 72 hours.

HUVEC cells [4] = experiment: Reactive oxygen species (ROS) generation in HUVEC under normoxia and hypoxia; format: cell-based, Human; conditions: subconfluent and confluent HUVEC, normoxic or hypoxic, 0, 100 or 1500 μM CoQ10
Experimental: (§4) The response of HUVEC cells to normoxia and hypoxia in the presence of absence of CoQ10 was assessed. Specifically, HUVEC cells were grown in subconfluent and confluent cultures under normoxic or hypoxic conditions as described herein. The cells were also exposed to 0, 100, or 1500 μM CoQ10. Nitric oxide (NO) and reactive oxygen species (ROS) levels were determined using methods provided herein.

HUVEC cells [5] = experiment: Nitric oxide (NO) generation in HUVEC under normoxia and hypoxia; format: cell-based, Human; conditions: subconfluent and confluent HUVEC, normoxic or hypoxic, 0, 100 or 1500 μM CoQ10
Experimental: as §4

HUVEC cells [6] = experiment: HUVEC bioenergetics (Seahorse assays); format: cell-based, Human; conditions: sub-confluent HUVEC cultures, CoQ10 10, 100, 1500 μM
Experimental: The bioenergetics of HUVEC cells were assessed in the presence of various concentrations of CoQ10. Specifically, HUVEC cells were grown in subconfluent or confluent conditions in the absence or presence of CoQ10 (10, 100, 1500 μM). Oxygen consumption rates (OCR), both total and mitochondrial, ATP production, and Extra Cellular Acidification Rate (ECAR) were assessed using Seahorse assays.

HUVEC cells [7] = experiment: HUVEC cell numbers; format: cell-based, Human
Experimental: as §2
CoQ10 decreases endothelial cell numbers and proliferation: Sub-confluent cultures of HUVEC cells were treated for 72 hours with 100 or 1500 μM CoQ10 and assayed for both cell numbers (FIG. 54A) and proliferation (FIG. 54B) using a propidium iodide incorporation assay (detects G2/M phase DNA).

HUVEC cells [8] = experiment: HUVEC migration, endothelial scratch assay; format: cell-based, Human; conditions: for closure of the cleared area (scratch assay): confluent HUVEC
Experimental: as §2, §3
CoQ10 decreases endothelial cell migration: HUVEC cells were grown to confluence tested for migration using the ‘scratch’ assay. 100 or 1500 μM CoQ10 was applied at the time of scratching and closure of the cleared area was monitored over 48 hours.

[9] = concentration not stated (summary)

Q: Which results are given for `COC1=C(OC)C(=O)C(C/C=C(\C)CC/C=C(\C)CC/C=C(\C)CC/C=C(\C)CC/C=C(\C)CC/C=C(\C)CC/C=C(\C)CC/C=C(\C)CC/C=C(\C)CCC=C(C)C)=C(C)C1=O` [CoQ10, Coenzyme Q10]?
A: protein expression level of TAZ (TAZ): normalized; HUVEC apoptosis (annexin V/propidium iodide positive cells) (HUVEC cells [1]; 1500 μM CoQ10, compared to excipient or control cells): increase; apoptosis / cell death of sub-confluent (angiogenic/proliferating) endothelial cells (HUVEC cells [1]; [9]): increases apoptosis; also recorded: selectively induces cell death; cell death of confluent (non-proliferating) endothelial cells (HUVEC cells [1]; concentration not stated or low doses (summary), compared to controls): protective; also recorded: decreased compared to controls; propidium iodide positive apoptotic cells (HUVEC cells [1]; confluent HUVEC, 100 or 1500 μM CoQ10): protective; propidium iodide positive apoptotic cells (HUVEC cells [1]; sub-confluent HUVEC, 1500 μM CoQ10): increased apoptosis; mitochondrial OCR (oxygen consumption rate) [2]: normalized; mitochondrial OCR (oxygen consumption rate) ([2]; listed as rescue molecule): normalizes; activation of caspase 3 (caspase 3): induces activation of caspase 3; HUVEC tube formation (HUVEC cells [3]; 1500 μM CoQ10, compared to both excipient and control untreated cells, 24 hours up to 96 hours): further impaired; endothelial tube formation (HUVEC cells [3]; 100 μM CoQ10): modest effect; endothelial tube formation (HUVEC cells [3]; 1500 μM CoQ10, images at 72 hours): Impaired cell to cell association and breakdown of early tube structure was significant; also recorded: dramatic disruption of endothelial tube formation; tube formation in 3-D MATRIGEL tube formation assays (HUVEC cells [3]; [9]): impairs; generation of reactive oxygen species (ROS) (HUVEC cells [4]): differential dose dependent generation; generation of nitric oxide (NO) (HUVEC cells [5]): differential dose dependent generation; mitochondrial OCR (HUVEC cells [6]): reverts mitochondrial OCR to confluent level OCR; HUVEC cell counts (HUVEC cells [7]; 1500 μM CoQ10): significantly decreased; cell numbers (HUVEC cells [7]; sub-confluent HUVEC, 72 hours, 100 or 1500 μM, high concentrations of CoQ10): significant decrease; also recorded: decreased cell numbers; HUVEC migration (HUVEC cells [8]; 5 hours post-cell clearance, 100 and 1500 μM, excipient also impaired migration): significantly impaired; endothelial migration in scratch assays (HUVEC cells [8]; [9]): potent inhibition of endothelial migration; also recorded: impairs endothelial migration; closure of the cleared area (scratch assay) (HUVEC cells [8]; 100 μM CoQ10, monitored over 48 hours, compared to control): delayed endothelial closure; closure of the cleared area (scratch assay) (HUVEC cells [8]; 1500 μM CoQ10, up to 48 hours): prevented closure

Reference: patent publication US12437835B2, “Interrogatory cell-based assays and uses thereof” (Berg LLC, priority 2012, dated 2025)
